The text below walks through data of patent publication US20250134869A1, “Pyrrolo[2,3-d]pyrimidinyl, Pyrrolo[2,3-b]pyrazinyl and Pyrrolo[2,3-d]pyridinyl Acryla-mides” (Pfizer Inc, priority 2021, published 2025).

A word on the IC50: it is the midpoint of a concentration-inhibition curve.

Molecules are shown by their SMILES. Like-named read-outs stand apart in the source and are kept apart here.

In data set [1] the test system is IL-15 induced STAT5 phosphorylation in human whole blood lymphocytes. In words: HWB IL-15 induced STAT5 phosphorylation assay. It is filed as cell-based. The following applies: IL-15 stimulated, read-out: HWB-IL15-pSTAT5 IC50. On the procedure:
HWB IL-15 Induced STAT5 Phosphorylation Assay
After mixing and incubating for 45 minutes at 37° C., 5 μl D-PBS (unstimulated control) or 20× stocks of 5 μl human IL-15 (final concentration is 50 ng/ml) were added, and mixed three times. After incubating 15 minutes at 37° C., 1× Lyse/Fix Buffer (BD Phosflow 5× Lyse/Fix Buffer) was added to all wells at 1000 μl/well, then incubated for 20 minutes at 37° C. and spun 5 mins at 1200 rpm. […] Following incubating at 4° C. over night, all the samples were transferred to 96-well polypropylene U-bottom plate, and checked by flow cytometry gated on total lymphocytes.

Data set [2] relates to IL-15 induced P-STAT5 in human PBMC. Put plainly: PBMC IL-15 induced P-STAT5. It counts as cell-based. The following applies: read-out: PBMC IL15-pSTAT5 IC50. On the procedure: PBMC IL-15 Induced P-STAT5
Frozen human PBMC (200-250 million cells/vial) was thawed at 37° C. The cells were transferred to 10 mL warm medium in a 50-mL conical tube, and centrifuged at 1,200 RPM at room temperature for 5 min. The supernatant was aspirated. […] After adding 47 ml D-PBS (37° C.) to PBMC/FBS suspension, centrifuging at 1,200 RPM at room temperature for 5 min, and aspirating the supernatant, the cells were resuspended in 20 mL warm RPMI medium. Ninety μL of cell suspension were pipetted per well in a 96-well, deep-well, V-bottom plate, and the plate was incubated at 37° C. for 30 min. […] After adding 0.8 mL staining buffer per well, the plates were centrifuged at 1,200 RPM (Beckman GS-6R or Sorvall Legend) at room temperature for 5 min, and again the supernatant was aspirated using a 8-channel or 12-channel manifold. The plate was vortexed, and 0.35 mL 90% methanol/10% H2O (−20° C.) was added per well, and the plate incubated on ice for 20 min. After again adding 0.8 mL staining buffer per well, the plates were centrifuged at 1,200 RPM (Beckman GS-6R or Sorvall Legend) at room temperature for 5 min, and again the supernatant was aspirated using a 8-channel or 12-channel manifold, and then 0.8 mL Staining buffer was added per well. After once again adding 0.8 mL staining buffer per well, the plates were centrifuged at 1,200 RPM (Beckman GS-6R or Sorvall Legend) at room temperature for 5 min, and again the supernatant was aspirated using a 8-channel or 12-channel manifold. […] Samples of 250 μL/well were transferred to a 96-well U-bottom plate, and the FACS analysis was performed gating on total lymphocytes. Samples were analyzed using a BD Calibur™ or BD FACSCanto™ flow cytometer equipped with the BD High Throughput Sampler.

Data set [3] is described as follows: Stability of JAK3 covalent inhibitors in human whole blood. The conditions noted are these: 1 μM, 37° C.
Description: Stability of JAK3 Covalent Inhibitors in Rat and Human Whole Blood
Rat blood was collected from 3 male Sprague-Dawley rats (200-250 g, Charles River Laboratories) and pooled for each study. Human blood was collected from one male and one female healthy subjects at the Occupational Health & Wellness Center at Pfizer, Groton, CT and pooled for each study. Both rat and human blood was collected freshly into K2-EDTA tubes and kept on ice. An aliquot of the blood was transferred to microtubes and pre-warmed for 10 min at 37° C. using a heat block. […] An aliquot of the incubation mixture was removed at designated time points during the course of the incubation, mixed with an aliquot of acetonitrile containing an internal standard, vortexed and centrifuged. The resulting supernatants were removed and subjected to LC-MS/MS analyses to determine parent compound concentrations. Peak area ratios of the parent compound vs the internal standard were used to determine the % of parent compound remaining vs incubation time.
The next data set addresses JAK3 enzyme (Homo sapiens (Human), UniProt P52333). Put plainly: JAK Caliper Enzyme Assay at 4 μM or 1 mM ATP. It counts as biochemical.
The mark [4] stands for this setting: Homo sapiens, PBMC, human PBMC, IL-15 stimulated.
The mark [5] stands for this setting: read-out: JAK3 (4 μM ATP) IC50, 4 μM ATP.
The mark [6] stands for this setting: read-out: JAK3 (1 mM ATP) IC50, 1 mM ATP.

Chain of JAK3 enzyme (P52333 whole entry, species assumed): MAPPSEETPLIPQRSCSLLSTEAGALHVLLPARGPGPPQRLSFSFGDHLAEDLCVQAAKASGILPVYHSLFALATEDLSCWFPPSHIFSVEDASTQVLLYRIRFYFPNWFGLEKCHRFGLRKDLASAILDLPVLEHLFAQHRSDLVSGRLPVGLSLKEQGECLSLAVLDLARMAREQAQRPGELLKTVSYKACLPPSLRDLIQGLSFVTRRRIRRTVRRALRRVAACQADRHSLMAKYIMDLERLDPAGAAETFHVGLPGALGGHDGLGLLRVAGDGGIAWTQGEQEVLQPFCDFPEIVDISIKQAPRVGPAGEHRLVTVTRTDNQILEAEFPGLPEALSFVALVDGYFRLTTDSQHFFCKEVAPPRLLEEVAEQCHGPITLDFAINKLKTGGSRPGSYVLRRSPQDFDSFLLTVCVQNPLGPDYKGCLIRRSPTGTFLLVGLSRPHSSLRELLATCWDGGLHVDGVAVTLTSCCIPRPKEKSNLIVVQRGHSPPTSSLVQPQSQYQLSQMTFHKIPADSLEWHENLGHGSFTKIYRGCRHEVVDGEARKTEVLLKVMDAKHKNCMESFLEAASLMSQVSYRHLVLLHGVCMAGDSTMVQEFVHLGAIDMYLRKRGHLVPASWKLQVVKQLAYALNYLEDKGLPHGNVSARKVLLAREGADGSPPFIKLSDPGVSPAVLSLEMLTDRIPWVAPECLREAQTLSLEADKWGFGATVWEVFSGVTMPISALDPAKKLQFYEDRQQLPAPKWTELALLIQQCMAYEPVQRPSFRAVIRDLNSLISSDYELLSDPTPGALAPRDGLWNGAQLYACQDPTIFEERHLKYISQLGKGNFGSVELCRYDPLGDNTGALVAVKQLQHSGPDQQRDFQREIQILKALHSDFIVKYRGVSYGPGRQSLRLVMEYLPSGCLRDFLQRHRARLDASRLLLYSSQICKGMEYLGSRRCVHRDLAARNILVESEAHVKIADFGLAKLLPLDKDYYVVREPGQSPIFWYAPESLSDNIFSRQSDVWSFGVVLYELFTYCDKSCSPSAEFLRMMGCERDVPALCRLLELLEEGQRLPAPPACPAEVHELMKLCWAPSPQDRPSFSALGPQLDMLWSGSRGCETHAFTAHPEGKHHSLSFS

Take `C=CC(=O)N1C[C@H](Nc2ncnc3[nH]ccc23)CC[C@@H]1CO` (single isomer, unassigned) [Example 7]: the IC50 in data set [1] (Lymphocyte) is 455 nM; in data set [2] (setting [4]) it was 76.9 nM. Moreover, the “Human blood stability t1/2” value in data set [3] is listed as over 333.5 min.
As to `C=CC(=O)N1CCC[C@@H](Nc2ccnc3[nH]cc(C#N)c23)C1` [Example 2, (R)-4-((1-acryloylpiperidin-3-yl)amino)-1H-pyrrolo[2,3-b]pyridine-3-carbonitrile], the “Human blood stability t1/2” value is reported as over 360.0 min. Further, the IC50 on JAK3 enzyme (read-out: JAK3 (4 μM ATP) IC50) worked out at 0.2 nM. For the same compound, at JAK3 enzyme (read-out: JAK3 (1 mM ATP) IC50), the concentration for half-maximal inhibition (IC50) amounted to 18.9 nM. Moreover, the IC50 in data set [1] worked out at 220 nM. In addition, the IC50 in data set [2] turned out to be 30.4 nM.
Take `C=CC(=O)N1CCC[C@@H](Nc2ncnc3[nH]cc(-c4ccc(C(=O)NC5CC5)c(Cl)c4)c23)C1` [Example 31, 4-(4-{[(3R)-1-acryloylpiperidin-3-yl]amino}-7H-pyrrolo[2,3-d]pyrimidin-5-yl)-2-chloro-N-cyclopropylbenzamide]: the “Human blood stability t1/2” value is listed as over 360.0 min. Moreover, on JAK3 enzyme (read-out: JAK3 (4 μM ATP) IC50), the IC50 is 24.1 nM. Besides, the IC50 on JAK3 enzyme (read-out: JAK3 (1 mM ATP) IC50) amounted to 1860 nM.
In the case of `C/C=C/C(=O)N1CCC[C@@H](Nc2ncnc3[nH]ccc23)C1` [Example 105, (2E)-1-[(3R)-3-(7H-pyrrolo[2,3-d]pyrimidin-4-ylamino)piperidin-1-yl]but-2-en-1-one], the IC50 on JAK3 enzyme (setting [5]) was 2480 nM; at JAK3 enzyme (setting [6]) it was over 10000 nM. Moreover, the “Human blood stability t1/2” value in data set [3] is reported as over 360.0 min.
On to `C=CC(=O)N1C[C@@H](Nc2ncnc3[nH]ccc23)CC[C@H]1CO` [Example 117, 1-[(2S,5S)-2-(Hydroxymethyl)-5-(7H-pyrrolo[2,3-d]pyrimidin-4-ylamino)piperidin-1-yl]prop-2-en-1-one], for which the half-maximal inhibitory concentration (IC50) in data set [1] (Lymphocyte) and in data set [2] (setting [4]) was over 10000 nM in each case.
For `C=CC(=O)N1CC(Nc2ncnc3[nH]ccc23)CCC1CO` (stereo not shown) [Example 118, 1-[2-(Hydroxymethyl)-5-(7H-pyrrolo[2,3-d]pyrimidin-4-ylamino)piperidin-1-yl]prop-2-en-1-one], the IC50 in data set [2] (human PBMC, IL-15 stimulated) was over 10000 nM. Moreover, the “Human blood stability t1/2” value in data set [3] is over 333.5 min.
On to `C=CC(=O)N1C[C@H](Nc2ncnc3[nH]ccc23)CC[C@@H]1CO` [Example 161, 1-[(2R,5R)-2-(Hydroxymethyl)-5-(7H-pyrrolo[2,3-d]pyrimidin-4-ylamino)piperidin-1-y]prop-2-en-1-one], for which the half-inhibitory concentration (IC50) was determined as 455 nM in data set [1] and 76.9 nM in data set [2] (human PBMC, IL-15 stimulated). Further, in data set [3], the “Human blood stability t1/2” value is reported as over 323.5 min.
`C=CC(=O)N1CC2CCN(c3cnc4[nH]cc(C(=O)NC(C)C)c4n3)C2C1` (stereo not shown) [Example 178, 2-(5-acryloylhexahydropyrrolo[3,4-b]pyrrol-1(2H)-yl)-N-(propan-2-yl)-5H-pyrrolo[2,3-b]pyrazine-7-carboxamide]: the IC50 turned out to be 1.1 nM at JAK3 enzyme (setting [5]), 102 nM on JAK3 enzyme (setting [6]), 2560 nM in data set [1] (Lymphocyte) and 208 nM in data set [2] (setting [4]).
For `C=CC(=O)N1CC(O)C(Nc2cnc3[nH]cc(C(=O)NC(C)C)c3n2)C1` (stereo not shown) [Example 179, 2-[(1-acryloyl-4-hydroxypyrrolidin-3-yl)amino]-N-(propan-2-yl)-5H-pyrrolo[2,3-b]pyrazine-7-carboxamide], the half-maximal inhibitory concentration (IC50) was 2.3 nM at JAK3 enzyme (setting [5]); 309 nM at JAK3 enzyme (setting [6]); over 10000 nM in data set [1] (Lymphocyte); over 10000 nM in data set [2] (human PBMC, IL-15 stimulated).
On to `C=CC(=O)N1CCC(Oc2cnc3[nH]cc(-c4cnn(C)c4)c3n2)CC1` [Example 218, 1-(4-{[7-(1-methyl-1H-pyrazol-4-yl)-5H-pyrrolo[2,3-b]pyrazin-2-yl]oxy}piperidin-1-yl)prop-2-en-1-one], for which the half-inhibitory concentration (IC50) on JAK3 enzyme (setting [5]) worked out at 0.6 nM; at JAK3 enzyme (setting [6]), 81.1 nM; in data set [1] (Lymphocyte), 6190 nM; in data set [2] (setting [4]), 345 nM.
Consider `C=CC(=O)N1CCC(Nc2cnc3[nH]cc(C(=O)N[C@@H]4C[C@H]4C(F)(F)F)c3n2)CC1` [Example 233, 2-[(1-acryloylpiperidin-4-yl)amino]-N-[(1R,2R)-2-(trifluoromethyl)cyclopropyl]-5H-pyrrolo[2,3-b]pyrazine-7-carboxamide], for which the IC50 at JAK3 enzyme (setting [5]) was 0.2 nM; at JAK3 enzyme (setting [6]), 20.6 nM; in data set [1] (Lymphocyte), 532 nM; in data set [2] (human PBMC, IL-15 stimulated) it was 213 nM.
